{"source": "patent US20150197814A1", "about": "“EGFR AND KRAS MUTATIONS” (Genentech, Inc., priority 2005, published 2015)", "key": {"HN5 xenografts": {"test_system": "HN5 xenografts", "conditions": "HN5 xenografts in nude mice; cited from earlier work"}, "A431 xenografts": {"test_system": "A431 xenografts", "conditions": "A431 xenografts in nude mice; cited from earlier work"}, "cell cycle": {"test_system": "cell cycle", "conditions": "cited from earlier work"}, "[1]": {"conditions": "with paclitaxel, cisplatin, gemcitabine, and doxorubicin; cited from earlier work"}, "[2]": {"test_system": "H1975 tumor cell line (EGFR T790M in combination with L858R)", "assay": "sensitivity of H1975 tumor cell line to treatment"}}}
{"smiles": "C#Cc1cccc(Nc2ncnc3cc(OCCOC)c(OCCOC)cc23)c1", "note": "[erlotinib]", "values": [{"measurement": "growth inhibition of xenografts", "setting": "HN5 xenografts", "value": "marked growth inhibition"}, {"measurement": "growth inhibition of xenografts", "setting": "A431 xenografts", "value": "marked growth inhibition"}, {"measurement": "cell cycle effect", "setting": "cell cycle", "value": "cell cycle arrest at G1"}, {"measurement": "interaction with chemotherapy agents", "setting": "[1]", "value": "additive interaction"}, {"measurement": "response of tumor cell line to treatment", "setting": "[2]", "value": "resistance"}]}
